# According to patent US6613793B2 (Dabur Research Foundation, priority 2001, dated 2003):
# Read-outs that look alike come from different tables or passages of the source.
# Experiments:
# MCF7 breast = assay: MTT cytotoxicity assay, MCF7; format: cell-based; conditions: Homo sapiens; for IC50: 24 h, MCF7 Breast, read-out: ED50 values of cytotoxicity
# Experimental: (§1) Briefly, a three day MTT cytotoxicity assay was performed, which is based on the principle of uptake of MTT (3-(4,5-dimethylthiazol-2-yl)-2,5-diphenyl tetrazolium bromide), a tetrazolium salt, by the metabolically active cells where it is metabolized by active mitochondria into a blue colored formazan product that is read spectrophotometrically. MTT was dissolved in phosphate buffered saline with a pH of 7.4 to obtain an MTT concentration of 5 mg/ml; the resulting mixture was filtered through a 0.22 micron filter to sterilize and remove a small amount of insoluble residue. For each type of tumor cell, 20,000 to 50,000 cells were seeded in a 96-well culture plate and incubated with the combination in a CO2 incubator for 24 hours. […] After incubating for one hour, the plate was read spectrophotometrically at 540 nm and the percentage cytotoxicity calculated.
# 293 Kidney = assay: MTT cytotoxicity assay, 293; format: cell-based; conditions: Homo sapiens, 24 h, read-out: ED50 values of cytotoxicity
# Experimental: as §1
# ECV304 cells = assay: Inhibition of tube-like-structure (TLS) formation on Matrigel; format: cell-based; parameters: key: significant (++); marginal (+); no effect (−); conditions: 24 hours
# Experimental: Matrigel (70 ul) was placed into each well of a 96-well culture plate at 4° C. and was allowed to polymerize by incubation at 37° C. for 30 min. ECV304 (1×10^4) cells were seeded on the Matrigel in 200 ul DMEM supplemented with 10% FBS. The compounds to be tested were added to marked wells at selected non-cytotoxic concentrations and incubated at 37° C. for 24 hours. Five different phase-contrast microscopic fields (4X) were viewed and tube-like structure formation was evaluated qualatively by observing formation of lumen (sprouting) and extent of formation of branches and loops by sprouts (intususception). The inhibition of TLS caused by the addition of the test compound was recorded as significant (++), marginal (+), or no effect (−) as compared to the control TLS formation. A summary of the results is given below in the form of a table indicating the concentrations tested.
# Swiss albino mice = format: in vivo; conditions: oral; for safe dose: Swiss albino mice weighing 25 grams; for Mortality: observed 15 days
# PA 1 Ovary = assay: MTT cytotoxicity assay, PA 1; format: cell-based; conditions: Homo sapiens, 24 h; PA 1 Ovarian; read-out: ED50 values of cytotoxicity
# Experimental: as §1
# [1] = tested on: PTC (Colon) Tumor Xenografts; assay: Antitumor activity on PTC (Colon) tumor xenografts in nude mice; format: in vivo, Balb/c athymic mice; conditions: 10 mg orally once a day for 15 days; at the end of treatment
# Experimental: PTC (colon) tumor xenografts were initiated in Balb/c athymic mice by subcutaneous inoculation of a single cell suspension of PTC cells (15×10^6 cells/100 μL). […] The anti-tumor activity was monitored by measuring tumor volumes every fourth day and calculating volumes using the formula 0.4×W^2×L(W=smaller dia, L=larger dia,).
# KB Oral = assay: MTT cytotoxicity assay, KB; format: cell-based; conditions: Homo sapiens, 24 h, read-out: ED50 values of cytotoxicity
# Experimental: as §1
# MOLT 4 Leukemia = assay: MTT cytotoxicity assay, MOLT 4; format: cell-based; conditions: Homo sapiens, 24 h, read-out: ED50 values of cytotoxicity
# Experimental: as §1
# PTC Colon = assay: MTT cytotoxicity assay, PTC; format: cell-based; conditions: Homo sapiens, 24 h, read-out: ED50 values of cytotoxicity
# Experimental: as §1
# Miapaca2 Pancreas = assay: MTT cytotoxicity assay, Miapaca2; format: cell-based; conditions: Homo sapiens, MIA PaCa-2, 24 h, read-out: ED50 values of cytotoxicity
# Experimental: as §1
# DU145 Prostate = assay: MTT cytotoxicity assay, DU145; format: cell-based; conditions: Homo sapiens, DU-145, 24 h, read-out: ED50 values of cytotoxicity
# Experimental: as §1
# L132 Lung = assay: MTT cytotoxicity assay, L132; format: cell-based; conditions: Homo sapiens, 24 h, read-out: ED50 values of cytotoxicity
# Experimental: as §1
# U87MG Glioblastoma = assay: MTT cytotoxicity assay, U87MG; format: cell-based; conditions: Homo sapiens, U-87 MG, 24 h, read-out: ED50 values of cytotoxicity
# Experimental: as §1
# Hep2 Larynx = assay: MTT cytotoxicity assay, Hep2; format: cell-based; conditions: Homo sapiens, HEp-2, 24 h, read-out: ED50 values of cytotoxicity
# Experimental: as §1
# INT 407 Intestine = assay: MTT cytotoxicity assay, INT 407; format: cell-based; conditions: Homo sapiens, 24 h, read-out: ED50 values of cytotoxicity
# Experimental: as §1
# [2] = tested on: Glyceraldehyde 3 phosphate dehydrogenase; assay: Glyceraldehyde 3 phosphate dehydrogenase enzyme activity assay; format: biochemical
# Experimental: The activity of Glyceraldehyde 3 phosphate dehydrogenase enzyme was assayed by the methods detailed earlier. (Krebs E, 1955, Methods in Enzymology, 1 407 and Velick S, 1955, Methods in Enzymology, 1, 401). To monitor the reaction, the increase in absorbance at 340 nm due to the formation of NADH from NAD was recorded at 15 seconds intervals, the values remaining almost linear for 3 minutes. The assay mixture was in a total volume of 1.5 ml containing 1.3 ml of Sodium pyrophosphate buffer (0.015M; pH 8.5), containing sodium arsenate (0.03M), 0.05 ml of NAD (7.5 mM), 0.05 ml of DTT (0.1M) and 0.05 ml of DL- glyceraldehyde 3 phosphate (7 mM). The enzyme was diluted 1:100 immediately prior to use in Sodium pyrophosphate buffer (0.015M) (pH 8.5) containing sodium arsenate (0.03M). The reaction was initiated by the addition of 0.05 ml of glyceraldehyde 3 phosphate dehydrogenase enzyme. The test mixture contained methyl glyoxal or its conjugates in concentrations ranging from 0.5 mM to 5 mM. Methyl glyoxal and its conjugates were dissolved in 2.5% ethanol and water. The control experiments were carried out in the absence of the enzyme or the substrate under identical conditions. One unit of activity of glyceraldehyde 3 phosphate dehydrogenase is defined as the amount of enzyme required to convert lumol of NAD to NADH per minute under conditions defined as above.
# [3] = dosage level 2.5X (X=400 mg/kg B.Wt.)
# [4] = dosage level 3.5X (X=400 mg/kg B.Wt.)
# [5] = dosage level 5X (X=400 mg/kg B.Wt.)
# [6] = dosage level 7.5X (X=400 mg/kg B.Wt.)
# [7] = dosage level 10X (X=400 mg/kg B.Wt.)
Structure (SMILES),IC50 (293 Kidney) [mM],TLS Inhibition (Qualitative) (ECV304 cells; 1.2 mM),safe dose (Swiss albino mice) [mg],Mortality (Swiss albino mice; [3]),Mortality (Swiss albino mice; [4]),Mortality (Swiss albino mice; [5]),Mortality (Swiss albino mice; [6]),Mortality (Swiss albino mice; [7]),IC50 (PA 1 Ovary) [mM],IC50 (KB Oral) [mM],Percent Inhibition Of Glyceraldehyde 3 Phosphate Dehydrogenase Activity ([2]; 0.5 mM) [%],Percent Inhibition Of Glyceraldehyde 3 Phosphate Dehydrogenase Activity ([2]; 1 mM) [%],Percent Inhibition Of Glyceraldehyde 3 Phosphate Dehydrogenase Activity ([2]; 5 mM) [%],other results
"COC(=O)C1CCC(=O)N1C(O)C(C)=O (stereo not shown) [MGC-1, N-(1-Hydroxy-2-ketopropyl)-methylpyroglutamate]",,,,,,,,,,,,,,"cytotoxicity at 1000 µM (MCF7 breast; MCF7, 1.0 mM, read-out: Percent cytotoxicity): 0%; cytotoxicity at 5000 µM (MCF7 breast; MCF7, 5 mM, read-out: Percent cytotoxicity): 12.9 ± 2.1%"
"CCCCOC(=O)C1CCC(=O)N1C(O)C(C)=O (stereo not shown) [MGC-2, N-(1-Hydroxy-2-ketopropyl)-butylpyroglutamate]",2 ± 0.8,+,75,0/10,0/10,0/10,0/10,10/10,,,,,,
"CC(=O)C(O)N1C(=O)CCC1C(=O)OCc1ccccc1 (stereo not shown) [MGC-3, N-(1-Hydroxy-2-ketopropyl)-benzylpyroglutamate]",,,,,,,,,1.8 ± 0.6,,,,,TLS Inhibition (Qualitative) (ECV304 cells; 2 mM): +; TLS Inhibition (Qualitative) (ECV304 cells; 2.5 mM): ++
"COC(=O)C1CCC(=O)N1C(OC(C)=O)C(C)=O (stereo not shown) [MGC-4, N-(1-Acetoxy-2-ketopropyl)-methylpyroglutamate]",,−,100,0/10,0/10,0/10,0/10,0/10,,,,,,average tumor volume as compared to average tumor volume of untreated control tumors [1]: 41%
"CCCCOC(=O)C1CCC(=O)N1C(OC(C)=O)C(C)=O (stereo not shown) [MGC-5, N-(1-Acetoxy-2-ketopropyl)-butylpyroglutamate]",1.9 ± 0.7,+,,,,,,,,2 ± 0.7,,,,
"CC(=O)OC(C(C)=O)N1C(=O)CCC1C(=O)OCc1ccccc1 (stereo not drawn) [MGC-6, N-(l-acetoxy-2-ketopropyl)-benzylpyroglutamate]",2.9 ± 1,−,75,0/10,0/10,0/10,0/10,10/10,1.4 ± 0.2,2.95 ± 0.3,28.3 ± 2.5,29.4 ± 3.0,30.1 ± 4.0,IC50 (MOLT 4 Leukemia): 1.3 ± 0.3 mM; IC50 (PTC Colon): 1.6 ± 0.4 mM; IC50 (Miapaca2 Pancreas): 3.9 ± 1 mM; IC50 (DU145 Prostate): 1.9 ± 1 mM; IC50 (L132 Lung): 3.8 ± 1 mM; IC50 (MCF7 breast): > 5 mM; IC50 (U87MG Glioblastoma): 4.78 ± 0.6 mM; IC50 (Hep2 Larynx): 1.2 ± 0.2 mM; IC50 (INT 407 Intestine): > 5 mM
"CCOC(=O)C1CCC(=O)N1C(O)C(C)=O (stereo not shown) [MGC-7, N-(1-Hydroxy-2-ketopropyl)-ethylpyroglutamate]",,,100,0/10,0/10,0/10,0/10,0/10,,,,,,
"CCOC(=O)C1CCC(=O)N1C(OC(C)=O)C(C)=O (stereo not shown) [MGC-8, N-(1-Acetoxy-2-ketopropyl)-ethylpyroglutarnate]",,,100,0/10,0/10,0/10,0/10,0/10,1.8 ± 0.7,1.95 ± 0.8,32.8 ± 1.2,40.1 ± 2.2,38.2 ± 1.9,IC50 (MOLT 4 Leukemia): 2.9 ± 0.5 mM; IC50 (PTC Colon): 2.75 ± 0.4 mM; IC50 (DU145 Prostate): 1.3 ± 0.3 mM; IC50 (L132 Lung): > 5 mM; IC50 (MCF7 breast): 2.4 ± 1.2 mM; IC50 (U87MG Glioblastoma): 1.88 ± 0.7 mM; IC50 (Hep2 Larynx): 2.1 ± 0.6 mM; IC50 (INT 407 Intestine): 0.55 ± 0.3 mM
"CC(=O)C=O [Methylglyoxal, reference compound]",,,,,,,,,,,15 ± 4,18 ± 3.4,20 ± 4.0,Glyceraldehyde 3 phosphate dehydrogenase enzyme activity inhibition (in words) ([2]; concentration ranging from 0.5 mM to 5 mM): inhibited significantly; average tumor volume as compared to average tumor volume of untreated control tumors [1]: 50%; TLS Inhibition (Qualitative) (ECV304 cells; 0.5 mM): +; TLS Inhibition (Qualitative) (ECV304 cells; 0.8 mM): +; TLS Inhibition (Qualitative) (ECV304 cells; 1 mM): ++
